Values of other authors as cited in US11235084B2, “Embolic microspheres” (Varian Medical Systems, Inc., priority 2017, dated 2022).

First: CC(C)(CO)NCC(O)CS(=O)(=O)O (centres unmarked) [AMPSO, N-(1,1-dimethyl-2-hydroxyethyl)-3-amino-2-hydroxypropanesulfonic acid]
Second: O=S(=O)(O)CCCNC1CCCCC1 [CAPS, 3-(cyclohexylamino)-1-propanesulfonic acid]
The “reported pKa values at 25° C.” value of the first is lower: 9.1 for the first, 10.5 for the second.

Going from `O=S(=O)(O)CCNC1CCCCC1` [CHES, 2-(cyclohexylamino)-1-ethanesulfonic acid] to `NCC(=O)NCC(=O)O` [glycylglycine], the “reported pKa values at 25° C.” value falls from 9.4 to 8.3.

In the case of `CCN1CCOCC1` [N-ethylmorpholine], the “reported pKa values at 25° C.” value is given as 7.8.
